The text below walks through data of patent US9567317B2, “Multicomponent crystalline system comprising nilotinib and selected co-crystal formers” (BASF SE, priority 2012, dated 2017).

The conditions of the data set: relative humidity changed from 0 to 95% according to the measurement program (FIG. 4).

For the compound `Cc1cn(-c2cc(NC(=O)c3ccc(C)c(Nc4nccc(-c5cccnc5)n4)c3)cc(C(F)(F)F)c2)cn1.Cl.O.O` [Nilotinib monohydrochloride dihydrate form A], the “water content change (water uptake)” value is listed as “Δm = 4.2%”.

`Cc1cn(-c2cc(NC(=O)c3ccc(C)c(Nc4nccc(-c5cccnc5)n4)c3)cc(C(F)(F)F)c2)cn1.Cl.O` [Nilotinib monohydrochloride monohydrate form B]: the “water content change (water uptake)” value was “Δm = 3.2%”.
